Biological target: BACE (Homo sapiens, UniProt P56817)
Test: Ki Determination for the Inhibition of BACE (FS-1 peptide fluorescence cleavage assay)
Type: biochemical
Details: apparent Ki; 50 nM BACE, 10 μM FS-1 substrate, 0.1M sodium acetate pH 4.5
Procedure: Compounds were tested against BACE activity using the following modifications of the method described in J. Ermolieff et al. (2000) Biochemistry 39(51):16263.
All compound evaluations were performed in 0.1M sodium acetate (buffer), pH, 4.5, 10 μM substrate (FS-1 peptide as described in the reference above; this is commercially available), varying concentrations of the test compound or control (DMSO to yeild 2% vol/vol), and 50 nM BACE. The assay volume is 100 μL.
Two microliters of the test compound dissolved in DMSO are added to each well in a 96-well microtiter plate. Seventy eight microliters of BACE are mixed with buffer and added to each well then incubated at room temperature for 15 minutes. A stock solution of 50 μM FS-1 substrate was prepared by addition of an aliquot of FS-1 substrate which was dissolved in DMSO to the buffer and mixed well. The reaction is initiated by addition of 20 μL of the FS-1 mix to the remaining, preincubated assay components. The cleavage reaction of substrate to product is measured using a Molecular Devices fluorescence plate reader with the excitation and emission filter pairs of 355 nm and 495 nm, respectively. Apparent Ki values are determined by fitting the data to the integrated equation for competitive tight binding inhibition.

Sequence of BACE (P56817 46-501): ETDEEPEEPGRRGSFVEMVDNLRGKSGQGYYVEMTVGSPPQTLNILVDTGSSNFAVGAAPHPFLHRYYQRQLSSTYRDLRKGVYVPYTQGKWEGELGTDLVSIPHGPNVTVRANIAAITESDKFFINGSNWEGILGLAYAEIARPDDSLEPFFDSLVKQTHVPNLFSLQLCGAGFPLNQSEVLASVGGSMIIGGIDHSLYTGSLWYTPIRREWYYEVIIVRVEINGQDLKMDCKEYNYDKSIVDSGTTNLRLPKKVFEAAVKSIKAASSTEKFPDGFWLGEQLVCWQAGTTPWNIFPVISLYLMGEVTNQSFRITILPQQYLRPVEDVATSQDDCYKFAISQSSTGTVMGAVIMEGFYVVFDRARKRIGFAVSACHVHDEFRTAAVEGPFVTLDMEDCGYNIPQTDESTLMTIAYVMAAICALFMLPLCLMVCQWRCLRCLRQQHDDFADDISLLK

`Cc1cc(N2CCNCC2)c(NC(=O)c2cccc3ccccc23)cc1-c1ccc(Cl)c(Cl)c1` [Compound 138, Naphthalene-1-carboxylic acid (3′,4′-dichloro-6-methyl-4-piperazin-1-yl-biphenyl-3-yl)-amide] and `O=C(Nc1cc(C(F)(F)F)c(-c2ccc(Cl)c(Cl)c2)cc1N1CCNCC1)c1cccc2ccccc12` [Compound 168, Naphthalene-1-carboxylic acid (3′,4′-dichloro-5-piperazin-1-yl-2-trifluoromethyl-biphenyl-4-yl)-amide] cannot be ordered by Ki: < 3 µM for the first, < 3 µM for the second.

`O=C(Nc1cc(Oc2cccc(Cl)c2)ccc1N1CCNCC1)c1cccc2ccccc12` [Compound 139, Naphthalene-1-carboxylic acid [5-(3-chloro-phenoxy)-2-piperazin-1-yl-phenyl]-amide] and `Cc1cccc(Oc2ccc(N3CCNCC3)c(NC(=O)c3cccc4ccccc34)c2)c1` [Compound 141, Naphthalene-1-carboxylic acid (2-piperazin-1-yl-5-m-tolyloxy-phenyl)-amide] fall in the same range of Ki: 3 to 30 µM for the first, 3 to 30 µM for the second.

`Cc1ccccc1Oc1ccc(N2CCNCC2)c(NC(=O)c2cccc3ccccc23)c1` [Compound 140, Naphthalene-1-carboxylic acid (2-piperazin-1-yl-5-o-tolyloxy-phenyl)-amide] and `Cc1ccc(Oc2ccc(N3CCNCC3)c(NC(=O)c3cccc4ccccc34)c2)cc1` [Compound 142, Naphthalene-1-carboxylic acid (2-piperazin-1-yl-5-p-tolyloxy-phenyl)-amide] fall in the same range of Ki: 3 to 30 µM for the first, 3 to 30 µM for the second.

Compared with `COc1ccc2c(C(=O)Nc3cc(C(F)(F)F)ccc3N3CCNCC3)cccc2c1` [Compound 143, 6-Methoxy-naphthalene-1-carboxylic acid (2-piperazin-1-yl-5-trifluoromethyl-phenyl)-amide], `O=C(Nc1cc(C(F)(F)F)ccc1N1CCNCC1)c1cccc2cccnc12` [Compound 149, Quinoline-8-carboxylic acid (2-piperazin-1-yl-5-trifluoromethyl-phenyl)-amide] is lower in Ki: > 30 µM for the first, 3 to 30 µM for the second. The second binds more tightly here.

`CC(C)NS(=O)(=O)c1ccc(-c2ccc(N3CCNCC3)c(NC(=O)c3cccc4ccccc34)c2)cc1` [Compound 144, Naphthalene-1-carboxylic acid (4′-isopropylsulfamoyl-4-piperazin-1-yl-biphenyl-3-yl)-amide] and `CCN(CC)S(=O)(=O)c1ccc(-c2ccc(N3CCNCC3)c(NC(=O)c3cccc4ccccc34)c2)cc1` [Compound 145, Naphthalene-1-carboxylic acid (4′-diethylsulfamoyl-4-piperazin-1-yl-biphenyl-3-yl)-amide] fall in the same range of Ki: 3 to 30 µM for the first, 3 to 30 µM for the second.

`O=C(Nc1cc(-c2ccc(S(=O)(=O)NCc3ccccc3)cc2)ccc1N1CCNCC1)c1cccc2ccccc12` [Compound 146, Naphthalene-1-carboxylic acid (4′-benzylsulfamoyl-4-piperazin-1-yl-biphenyl-3-yl)-amide] and `O=C(Nc1cc(-c2ccc(S(=O)(=O)NCc3ccccc3)c(F)c2)ccc1N1CCNCC1)c1cccc2ccccc12` [Compound 163, Naphthalene-1-carboxylic acid (4′-benzylsulfamoyl-3′-fluoro-4-piperazin-1-yl-biphenyl-3-yl)-amide] cannot be ordered by Ki: < 3 µM for the first, < 3 µM for the second.

Going from `O=C(Nc1cc(-c2ccc(S(=O)(=O)NC3CCCCC3)cc2)ccc1N1CCNCC1)c1cccc2ccccc12` [Compound 147, Naphthalene-1-carboxylic acid (4′-cyclohexylsulfamoyl-4-piperazin-1-yl-biphenyl-3-yl)-amide] to `O=C(Nc1cc(-c2ccoc2)ccc1N1CCNCC1)c1cccc2ccccc12` [Compound 152, Naphthalene-1-carboxylic acid (5-furan-3-yl-2-piperazin-1-yl-phenyl)-amide], the Ki rises from < 3 µM to > 30 µM. The first binds more tightly here.

`O=C(Nc1cc(C(F)(F)F)cc(Cl)c1N1CCNCC1)c1cccc2ccccc12` [Compound 148, Naphthalene-1-carboxylic acid (3-chloro-2-piperazin-1-yl-5-trifluoromethyl-phenyl)-amide] and `O=C(Nc1cc(C(F)(F)F)c(Cl)cc1N1CCNCC1)c1cccc2ccccc12` [Compound 167, Naphthalene-1-carboxylic acid (4-chloro-2-piperazin-1-yl-5-trifluoromethyl-phenyl)-amide] cannot be ordered by Ki: > 30 µM for the first, > 30 µM for the second.

`O=C(Nc1cc(C(F)(F)F)ccc1N1CCNCC1)Oc1cccc2ccccc12` [Compound 150, (2-Piperazin-1-yl-5-trifluoromethyl-phenyl)-carbamic acid naphthalen-1-yl ester] and `O=C(Nc1cc(C(F)(F)F)ccc1N1CCNCC1)Oc1ccc2ccccc2c1` [Compound 151, (2-Piperazin-1-yl-5-trifluoromethyl-phenyl)-carbamic acid naphthalen-2-yl ester] fall in the same range of Ki: 3 to 30 µM for the first, 3 to 30 µM for the second.

`O=C(Nc1cc(-c2ccsc2)ccc1N1CCNCC1)c1cccc2ccccc12` [Compound 153, Naphthalene-1-carboxylic acid (2-piperazin-1-yl-5-thiophen-3-yl-phenyl)-amide] and `Cc1cc(N2CCNCC2)c(NC(=O)c2cccc3ccccc23)cc1-c1ccsc1` [Compound 155, Naphthalene-1-carboxylic acid (4-methyl-2-piperazin-1-yl-5-thiophen-3-yl-phenyl)-amide] fall in the same range of Ki: 3 to 30 µM for the first, 3 to 30 µM for the second.

First: Cc1cc(N2CCNCC2)c(NC(=O)c2cccc3ccccc23)cc1-c1ccoc1 [Compound 154, Naphthalene-1-carboxylic acid (5-furan-3-yl-4-methyl-2-piperazin-1-yl-phenyl)-amide]
Second: O=C(Nc1cc(F)c(-c2ccoc2)cc1N1CCNCC1)c1cccc2ccccc12 [Compound 160, Naphthalene-1-carboxylic acid (5-fluoro-4-furan-3-yl-2-piperazin-1-yl-phenyl)-amide]
The Ki of the first is higher: > 30 µM for the first, 3 to 30 µM for the second. The second binds more tightly here.

First: O=C(Nc1ccc(OCc2ccccc2)cc1N1CCNCC1)c1cccc2ccccc12 [Compound 156, Naphthalene-1-carboxylic acid (4-benzyloxy-2-piperazin-1-yl-phenyl)-amide]
Second: O=C(Nc1cc(F)c(-c2ccccc2)cc1N1CCNCC1)c1cccc2ccccc12 [Compound 158, Naphthalene-1-carboxylic acid (2-fluoro-5-piperazin-1-yl-biphenyl-4-yl)-amide]
The Ki of the first is higher: > 30 µM for the first, 3 to 30 µM for the second. The second binds more tightly here.

First: O=C(Nc1cc(F)c(Br)cc1N1CCNCC1)c1cccc2ccccc12 [Compound 157, Naphthalene-1-carboxylic acid (4-bromo-5-fluoro-2-piperazin-1-yl-phenyl)-amide]
Second: O=C(Nc1cc(F)c(-c2ccc(C(F)(F)F)cc2)cc1N1CCNCC1)c1cccc2ccccc12 [Compound 159, Naphthalene-1-carboxylic acid (2-fluoro-5-piperazin-1-yl-4′-trifluoromethyl-biphenyl-4-yl)-amide]
The Ki of the first is higher: > 30 µM for the first, < 3 µM for the second.

Compared with `O=C(Nc1cc(-c2ccc(C(F)(F)F)cc2F)ccc1N1CCNCC1)c1cccc2ccccc12` [Compound 161, Naphthalene-1-carboxylic acid (2′-fluoro-4-piperazin-1-yl-4′-trifluoromethyl-biphenyl-3-yl)-amide], `O=C(Nc1cc(-c2cc(F)c(C(F)(F)F)cc2F)ccc1N1CCNCC1)c1cccc2ccccc12` [Compound 162, Naphthalene-1-carboxylic acid (2′,5′-difluoro-4-piperazin-1-yl-4′-trifluoromethyl-biphenyl-3-yl)-amide] is lower in Ki: 3 to 30 µM for the first, < 3 µM for the second. The second binds more tightly here.

First: O=C(Nc1cc(-c2cc(F)c(S(=O)(=O)NCc3ccccc3)cc2F)ccc1N1CCNCC1)c1cccc2ccccc12 [Compound 164, Naphthalene-1-carboxylic acid (4′-benzylsulfamoyl-2′,5′-difluoro-4-piperazin-1-yl-biphenyl-3-yl)-amide]
Second: O=C(Nc1cc(C(F)(F)F)c(-c2ccc(C(F)(F)F)cc2)cc1N1CCNCC1)c1cccc2ccccc12 [Compound 170, Naphthalene-1-carboxylic acid (5-piperazin-1-yl-2,4′-bis-trifluoromethyl-biphenyl-4-yl)-amide]
The Ki of the first is higher: 3 to 30 µM for the first, < 3 µM for the second. The second binds more tightly here.

`c1ccc(-c2ccc(N3CCNCC3)c(NCc3ccc4ccccc4c3)c2)cc1` [Compound 165, Naphthalen-2-ylmethyl-(4-piperazin-1-yl-biphenyl-3-yl)-amine] and `FC(F)(F)c1ccc(-c2ccc(N3CCNCC3)c(NCc3ccc4ccccc4c3)c2)cc1` [Compound 166, Naphthalen-2-ylmethyl-(4-piperazin-1-yl-4′-trifluoromethyl-biphenyl-3-yl)-amine] cannot be ordered by Ki: < 3 µM for the first, < 3 µM for the second.

`O=C(Nc1cc(C(F)(F)F)c(-c2cc(Cl)ccc2Cl)cc1N1CCNCC1)c1cccc2ccccc12` [Compound 169, Naphthalene-1-carboxylic acid (2′,5′-dichloro-5-piperazin-1-yl-2-trifluoromethyl-biphenyl-4-yl)-amide] and `O=C(Nc1ccc(-c2ccc(Cl)c(Cl)c2)cc1N1CCNCC1)c1cccc2ccccc12` [Compound 173, Naphthalene-1-carboxylic acid (3′,4′-dichloro-3-piperazin-1-yl-biphenyl-4-yl)-amide] cannot be ordered by Ki: < 3 µM for the first, < 3 µM for the second.

`O=S(=O)(Nc1cc(C(F)(F)F)ccc1N1CCNCC1)c1ccc(-c2ccc(C(F)(F)F)cc2)cc1` [Compound 171, 4′-Trifluoromethyl-biphenyl-4-sulfonic acid (2-piperazin-1-yl-5-trifluoromethyl-phenyl)-amide] and `O=S(=O)(Nc1cc(C(F)(F)F)ccc1N1CCNCC1)c1ccc(-c2ccccc2C(F)(F)F)cc1` [Compound 172, 2′-Trifluoromethyl-biphenyl-4-sulfonic acid (2-piperazin-1-yl-5-trifluoromethyl-phenyl)-amide] cannot be ordered by Ki: < 3 µM for the first, < 3 µM for the second.

Source: patent US20030095958A1, “Inhibitors of bace” (priority 2001, published 2003)
